# Counter-ions that a name gives are not always drawn.
# Target: T1, hiNOS (Homo sapiens, UniProt P35228)
# T1 construct: expressed in transfected cells; host or cells: HEK293
# Test: DAN assay, hiNOS expressed in transiently transfected HEK293 cells
# Type: cell-based
# Conditions: HEK293 cells transiently transfected with hiNOS
# From the text: The source of nitric oxide synthase (NOS) enzyme can be generated in several ways including induction of endogenous iNOS using cytokines and/or lipopolysaccharide (LPS) in various cell types known in the art. Alternatively, the gene encoding the enzyme can be cloned and the enzyme can be generated in cells via heterologous expression from a transient or stable expression plasmid with suitable features for protein expression as are known in the art. Enzymatic activity (nitric oxide production) is calcium independent for iNOS, while the constitutive NOS isoforms, nNOS and eNOS, become active with the addition of various cofactors added to cellular media or extract as are well known in the art. Enzymes specified in Table 1 were expressed in HEK293 cells transiently transfected with the indicated NOS isoform.
# A major metabolic pathway for nitric oxide is to nitrate and nitrite, which are stable metabolites within tissue culture, tissue, plasma, and urine (S Moncada, A Higgs, N Eng J Med 329, 2002 (1993)).
# The level of nitrate or nitrite in the specimen can be quantified by any method known in the art which provides adequate sensitivity and reproducibility. A variety of protocols have also been described for detecting and quantifying nitrite and nitrate levels in biological fluids by ion chromatography (e.g., S A Everett et al., J. Chromatogr. 706, 437 (1995); J M Monaghan et al., J. Chromatogr. 770, 143 (1997)), high-performance liquid chromatography (e.g., M Kelm et al., Cardiovasc. Res. 41, 765 (1999)), and capillary electrophoresis (M A Friedberg et al., J. Chromatogr. 781, 491 (1997)). For example, 2,3-diaminonaphthalene reacts with the nitrosonium cation that forms spontaneously from NO to form the fluorescent product […]. Using 2,3-diaminonaphthalene (“DAN”), researchers have developed a rapid, quantitative fluorometric assay that can detect from 10 nM to 10 μM nitrite and is compatible with a multi-well microplate format. […] DAN reacts with nitrite ion and gives fluorescent […] (M C Carré et al., Analysis 27, 835-838 (1999)). Table 1 provides the test results of various compounds of the subject invention using the DAN assay.
# A specimen can be processed prior to determination of nitrate or nitrite as required by the quantification method, or in order to improve the results, or for the convenience of the investigator. For example, processing can involve centrifuging, filtering, or homogenizing the sample. If the sample is whole blood, the blood can be centrifuged to remove cells and the nitrate or nitrite assay performed on the plasma or serum fraction. If the sample is tissue, the tissue can be dispersed or homogenized by any method known in the art prior to determination of nitrate or nitrite. It may be preferable to remove cells and other debris by centrifugation or another method and to determine the nitrate or nitrite level using only the fluid portion of the sample, or the extracellular fluid fraction of the sample. The sample can also be preserved for later determination, for example by freezing of urine or plasma samples. When appropriate, additives may be introduced into the specimen to preserve or improve its characteristics for use in the nitrate or nitrite assay.
# The “level” of nitrate, nitrite, or other NO-related product usually refers to the concentration (in moles per liter, micromoles per liter, or other suitable units) of nitrate or nitrite in the specimen, or in the fluid portion of the specimen. However, other units of measure can also be used to express the level of nitrate or nitrite. For example, an absolute amount (in micrograms, milligrams, nanomoles, moles, or other suitable units) can be used, particularly if the amount refers back to a constant amount (e.g., grams, kilograms, milliliters, liters, or other suitable units) of the specimens under consideration. A number of commercially available kits can be used.
row,Structure (SMILES),EC50
1,"Cc1cc(C(C)(C)C(=O)NCCNCc2ccc3c(c2)OCO3)nc(-n2ccnc2)n1 [Example 66, N-{2-[(Benzo[1,3]dioxol-5-ylmethyl)-amino]-ethyl}-2-(2-imidazol-1-yl-6-methyl-pyrimidin-4-yl)-isobutyramide]",< 1000 nM
2,"CCOC(=O)C(CC(=O)NCCc1ccc2c(c1)OCO2)c1nc(-n2ccnc2)ns1 (stereo not drawn) [Example 67, N-(2-Benzo[1,3]dioxol-5-yl-ethyl)-2-(3-imidazol-1-yl-[2,4]thiadiazol-5-yl)-succinamic acid ethyl ester]",< 1000 nM
3,"CC(NCCNCc1ccc2c(c1)OCO2)c1csc(-n2ccnc2)n1 (stereo not drawn) [Example 68, N-Benzo[1,3]dioxol-5-ylmethyl-N′-[1-(2-imidazol-1-yl-thiazol-4-yl)-ethyl]-ethane-1,2-diamine]",< 1000 nM
4,"CCOC(=O)CN(Cc1cc(C)nc(-n2ccnc2)n1)C(=O)NCCc1ccc2c(c1)OCO2 [Example 69, [3-(2-Benzo[1,3]dioxol-5-yl-ethyl)-1-(2-imidazol-1-yl-6-methyl-pyrimidin-4-ylmethyl)-ureido]-acetic acid ethyl ester]",< 1000 nM
5,"Cc1cc(CN(CC(N)=O)C(=O)NCCc2ccc3c(c2)OCO3)nc(-n2ccnc2)n1 [Example 70, (2-[3-(2-Benzo[1,3]dioxol-5-yl-ethyl)-1-(2-imidazol-1-yl-6-methyl-pyrimidin-4-ylmethyl)-ureido]-acetamide)]",< 1000 nM
6,Cc1cc(CNS(=O)(=O)NCCc2ccc3c(c2)OCO3)nc(-n2ccnc2)n1 [Example 71],< 50000 nM
7,"Cc1cc(C(C)(C)C(=O)NCCCc2ccc3c(c2)OCO3)nc(-n2ccnc2)n1 [Example 72, 2-(2-(1H-imidazol-1-yl)-6-methylpyrimidin-4-yl)-N-(3-(benzo[d][1,3]dioxol-5-yl)propyl)-2-methylpropanamide]",< 50000 nM
8,"Cc1cc(C(C)(C)/C=C/C(=O)NCc2ccc3c(c2)OCO3)nc(-n2ccnc2)n1 [Example 74, (E)-4-(2-(1H-Imidazol-1-yl)-6-methylpyrimidin-4-yl)-N-(benzo[d][1,3]dioxol-5-ylmethyl)-4-methylpent-2-enamide]",< 50000 nM
9,"Cc1cc(C(C)(C)CCC(=O)NCc2ccc3c(c2)OCO3)nc(-n2ccnc2)n1 [Example 75, 4-(2-(1H-Imidazol-1-yl)-6-methylpyrimidin-4-yl)-N-(benzo[d][1,3]dioxol-5-ylmethyl)-4-methylpentanamide]",< 1000 nM
10,"Cc1cc(C(C)(C)CCCNCc2ccc3c(c2)OCO3)nc(-n2ccnc2)n1 [Example 76, 4-(2-(1H-Imidazol-1-yl)-6-methylpyrimidin-4-yl)-N-(benzo[d][1,3]dioxol-5-ylmethyl)-4-methylpentan-1-amine]",< 1000 nM
11,"Cc1cc(C(C)(C)NCCNCc2ccc3c(c2)OCO3)nc(-n2ccnc2)n1 [Example 77, N-1-(2-(2-(1H-Imidazol-1-yl)-6-methylpyrimidin-4-yl)propan-2-yl)-N-2-(benzo[d][1,3]dioxol-5-ylmethyl)ethane-1,2-diamine hydrochloride]",< 1000 nM
12,"Cc1cc(C(C)(C)CNCCCc2ccc3c(c2)OCO3)nc(-n2ccnc2)n1 [Example 78, (3-Benzo[1,3]dioxol-5-yl-propyl)-{2-[2-(2H-imidazol-1-yl)-6-methyl-pyrimidin-4-yl]-2-methyl-propyl}-amine hydrochloride]",< 1000 nM
13,"CN(CCCN(C)c1nc(-n2ccnc2)ns1)Cc1ccc2c(c1)OCO2 [Example 79, N-Benzo[1,3]dioxol-5-ylmethyl-N′-(3-imidazol-1-yl-[1,2,4]thiadiazol-5-yl)-N,N′-dimethyl-propane-1,3-diamine]",< 1000 nM
14,CN(CCCN(Cc1ccc2c(c1)OCO2)C(=O)OC(C)(C)C)c1nc(-n2cnc(I)c2)ns1 [Example 80],> 50000 nM
15,"CN(CCCNCc1ccc2c(c1)OCO2)c1nc(-n2cnc(I)c2)ns1 [Example 81, N′-Benzo[1,3]dioxol-5-ylmethyl-N-[3-(4-iodo-imidazol-1-yl)-[1,2,4]thiadiazol-5-yl]-N-methyl-propane-1,3-diamine]",> 50000 nM
16,"CN(CCCN(C)c1nc(-n2ccnc2)ns1)Cc1ccc2c(c1)OCCO2 [Example 82, N-(2,3-Dihydro-benzo[1,4]dioxin-6-ylmethyl)-N′-(3-imidazol-1-yl-[1,2,4]thiadiazol-5-yl)-N,N′-dimethyl-propane-1,3-diamine]",< 1000 nM
17,"CN(CCNCCc1ccc2c(c1)OCCO2)c1nc(-n2ccnc2)ns1 [Example 83, N′-[2-(2,3-Dihydro-benzo[1,4]dioxin-6-yl)-ethyl]-N-(3-imidazol-1-yl-[1,2,4]thiadiazol-5-yl)-N-methyl-ethane-1,2-diamine]",< 1000 nM
18,"CN(CCc1ccc2c(c1)OCCO2)CCN(C)c1nc(-n2ccnc2)ns1 [Example 84, N-[2-(2,3-Dihydro-benzo[1,4]dioxin-6-yl)-ethyl]-N′-(3-imidazol-1-yl-[1,2,4]thiadiazol-5-yl)-N,N′-dimethyl-ethane-1,2-diamine]",< 1000 nM
19,"CN(CCCNCCc1ccc2c(c1)OCCO2)c1nc(-n2ccnc2)ns1 [Example 85, N′-[2-(2,3-Dihydro-benzo[1,4]dioxin-6-yl)-ethyl]-N-(3-imidazol-1-yl-[1,2,4]thiadiazol-5-yl)-N-methyl-propane-1,3-diamine]",< 1000 nM
20,"CN(CCCN(C)c1nc(-n2ccnc2)ns1)CCc1ccc2c(c1)OCCO2 [Example 86, N-[2-(2,3-Dihydro-benzo[1,4]dioxin-6-yl)-ethyl]-N′-(3-imidazol-1-yl-[1,2,4]thiadiazol-5-yl)-N,N′-dimethyl-propane-1,3-diamine]",< 1000 nM
21,"CN(CCCNCCc1ccc2c(c1)OCO2)c1nc(-n2ccnc2)ns1 [Example 87, N′-(2-Benzo[1,3]dioxol-5-ethyl)-N-(3-imidazol-1-yl-[1,2,4]thiadiazol-5-yl)-N-methyl-propane-1,3-diamine]",< 1000 nM
22,"CN(CCCN(C)c1nc(-n2ccnc2)ns1)CCc1ccc2c(c1)OCO2 [Example 88, N-(2-Benzo[1,3]dioxol-5-yl-ethyl)-N′-(3-imidazol-1-yl-[1,2,4]thiadiazol-5-yl)-N,N′-dimethyl-propane-1,3-diamine]",< 1000 nM
23,"CN(CCN1CCCC1c1nc(-n2ccnc2)ns1)Cc1ccc2c(c1)OCO2 (stereo not drawn) [Example 89, Benzo[1,3]dioxol-5-ylmethyl-{2-[2-(3-imidazol-1-yl-[1,2,4]thiadiazol-5-yl)-pyrrolidin-1-yl]-ethyl}-methyl-amine]",< 1000 nM
24,"Cc1cc(C2CCCN2CCNCc2ccc3c(c2)OCCO3)nc(-n2ccnc2)n1 (stereo not drawn) [Example 92, (2,3-Dihydro-benzo[1,4]dioxin-6-ylmethyl)-{2-[2-(2-imidazol-1-yl-6-methyl-pyrimidin-4-yl)-pyrrolidin-1-yl]-ethyl}-amine]",< 1000 nM
25,"Cc1cc(C2CCCN2CCN(C)Cc2ccc3c(c2)OCCO3)nc(-n2ccnc2)n1 (stereo not drawn) [Example 93, (2,3-Dihydro-benzo[1,4]dioxin-6-ylmethyl)-{2-[2-(2-imidazol-1-yl-6-methyl-pyrimidin-4-yl)-pyrrolidin-1-yl]-ethyl}-methyl-amine]",< 1000 nM
26,NC(=O)C1CCC(C(=O)NCCc2ccc3c(c2)OCO3)N1c1nc(-n2ccnc2)ns1 (stereo not drawn) [Example 95],< 1000 nM
27,"CNC(=O)C1CCC(C(=O)NCCc2ccc3c(c2)OCO3)N1c1nc(-n2ccnc2)ns1 (stereo not drawn) [Example 96, 1-(3-Imidazol-1-yl-[1,2,4]thiadiazol-5-yl)-pyrrolidine-2,5-dicarboxylic acid 2-[(2-benzo[1,3]dioxol-5-yl-ethyl)-amide] 5-methylamide]",< 50000 nM
